The values below come from patent US20090305894A1, “use of sulfonanilides as herbicide” (priority 2005, published 2009).

Format in all cases: in vivo
One data set relates to Glycine max. Nature of the data set: Herbicide damage to crops in dry field, spraying treatment on soil before sprouting (Test Example 4, Table 12). The settings on record: 80 g ai/ha, rated after 3 weeks. The protocol: (§1) The formulations of active compounds were obtained as emulsions by mixing 1 part by weight of the active compound with the carrier and emulsifier in the described amounts. The formulations were diluted with water so as to adjust a prescribed dosage.
(§2) In a greenhouse seeds of rice (cultivar: Balilla) and weeds (Brachiaria plantaginea, Cyperus esculntus, Cyperus iria L., Echinochloa colonum, Leptochloa chinensis, Ipomoea purpurea, and Sesbania exaltata) were inoculated on the surface layers of pots filled with 100 cm^2 of paddy field soil and covered with soil. Water was poured to produce wet state (water level 0 cm). The prescribed diluted solutions of the formulations of the respective active compounds obtained in the same manner as in Test Example 1 were sprayed on the soil of some pots on completion of the seeding and the solutions of the agents were sprayed over the plants from the above in the rest of the pots after the respective sample plants were grown in first- to third-1 eaf stage in the greenhouse. After one day from the treatment with the compound, water was poured in 3 cm depth. The herbicidal effects and herbicide damage on rice of the respective compounds were investigated after 3 weeks from the treatment. The herbicidal effect and herbicide damage on the rice were rated as 100% in the case of complete withering and 0% in the case of no herbicidal effect or no harm. When herbicidal effect was 80% or higher, it was determined to be practically applicable as herbicides. When the herbicide damage was 20% or lower, the safety of the herbicide was evaluated to be excellent.
(§3) In a greenhouse one seed each of crops in dry field (Triticum aestivum and Glycine max) and weeds (Echinochloa crus-gali and Setaria vividis) were inoculated in the surface layer in one pot filled with 16 cm^2 of dry field soil and covered with soil. The prescribed diluted solutions of the formulations of the respective active compounds obtained in the same manner as in Test Example 1 were sprayed to the soil upon the inoculation. The herbicidal effect and herbicide damage on crops of the respective compounds were investigated after 3 weeks from the treatment. Evaluations of the herbicidal effect and herbicide damage were carried out in the same manner as in Test Example 3. As the representative example, the test results of compound No. 1 and 24, and the comparative compound C-1 are shown in Table 12.

Data set [1] relates to Triticum aestivum. The description is as above. Conditions: 80 g ai/ha, rated after 3 weeks. As to the method: as §1, §2, §3
Another data set has as its system Echinochloa crus-gali. Nature of the data set: Herbicidal effect on weeds in dry field, spraying treatment on soil before sprouting (Test Example 4, Table 12). The settings on record: 80 g ai/ha, spraying to soil before sprouting, rated after 3 weeks. As to the method: as §1, §2, §3
Another data set deals with Setaria vividis. Described as above. The settings on record: 80 g ai/ha, spraying to soil before sprouting, rated after 3 weeks. As to the method:
as §1, §2, §3

Data set [2] deals with Triticum aestivum. Kind of data set: Herbicide damage to crops in dry field, spraying treatment to stems and leaves after sprouting (Test Example 5, Table 13). Conditions: 80 g ai/ha, rated after 3 weeks. As to the method: as §1
as §2, with “The herbicidal effects and herbicide damage on rice of the respective compounds were investigated after 3 weeks from the treatment. The herbicidal effect and herbicide damage on the rice were rated as 100% in the case of complete withering and 0% in the case of no herbicidal effect or no harm.” left out, “excellent. […]” for “excellent.”

The test system of a further data set is Veronica persica. Kind of data set: Herbicidal effect on weeds in dry field, spraying treatment to stems and leaves after sprouting (Test Example 5, Table 13). The settings on record: 80 g ai/ha, rated after 3 weeks. As to the method: as §1, §2
(§4) In a green house one seed each of crops in dry field (Triticum aestivum) and weeds (Veronica persica and Viola mandshurica) were inoculated in the surface layer in one pot filled with 16 cm^2 of dry field soil and covered with soil. After the sample plants were grown to second- and third-leaf stages at the greenhouse, the prescribed diluted solutions of the formulations of the respective active compounds obtained in the same manner as in Test Example 1 were sprayed over the plants from the above. The herbicidal effect and herbicide damage on crops of the respective compounds were investigated after 3 weeks from the treatment. Evaluations of the herbicidal effect and herbicide damage were carried out in the same manner as in Test Example 3.

For another data set, the system named is Viola mandshurica. The data set is described as above. The settings on record: 80 g ai/ha, rated after 3 weeks. The protocol: as §1, §2, §4
The test system of data set [3] is Scirpus juncoides Roxburgh (resistant to sulfonylurea type herbicide). Nature of the data set: Herbicidal efficacy test to weeds resistant to sulfonylurea type herbicide (Test Example 1, applied on water surface, Table 8). The settings on record: 60 g ai/ha, applied on water surface at beginning of sprouting, rated after 3 weeks; 100% = complete withering, 0% = no effect. As to the method:
(§5) Preparation of formulation of active compound
(§6) Carrier: DMF 5 parts by weight
(§7) Emulsifier: benzyloxypolyglycol ether 1 part by weight
as §1
(§8) In a greenhouse respective seeds of Scirpus juncoides Roxburgh (from Hokkaido, Japan) and Lindernia procumbens Philcox (from Saitama, Japan), which are confirmed to have resistance to a sulfonylurea type herbicide, were inoculated in pots filled with 500 cm^2 of paddy field soil and water was poured to the pot in about 2 to 3 cm depth. At the beginning of sprouting of the weeds, prescribed diluted solutions of the formulations of the respective active compounds obtained by the above-mentioned manner were applied on the water surface. After the treatment water depth of 3 cm was kept. The herbicidal effect was investigated after 3 weeks of the treatment. The herbicidal effect was rated as 100% in the case of complete withering and 0% in the case of no herbicidal effect. When the herbicidal effect was 80% or higher, the practical effectiveness as herbicides is recognized. As the representative examples, the test results of the compound Nos. 1, 3, 4, 5, 6, 7, 13, 70, 127, 128 and 130 are shown in Table 8.

Data set [4] deals with rice (cultivar: Balilla). Kind of data set: Irrigated directly seeded paddy rice, herbicide damage, spraying to soil before sprouting (Test Example 3, Table 10). The settings on record: 20 g ai/ha, rated after 3 weeks. As to the method:
as §1, §2

The subject of data set [5] is Brachiaria plantaginea. Nature of the data set: Irrigated directly seeded paddy rice, herbicidal effect, spraying to soil before sprouting (Test Example 3, Table 10). The settings on record: 20 g ai/ha, rated after 3 weeks. As to the method:
as §1, §2

Data set [6] relates to Cyperus esculntus. The description is as above. The settings on record: 20 g ai/ha, rated after 3 weeks. The protocol:
as §1, §2

In data set [7] the test system is Cyperus iria L. Described as above. Conditions: 20 g ai/ha, rated after 3 weeks. The protocol:
as §1, §2

Data set [8] concerns Echinochloa colonum. The description is as above. Conditions: 20 g ai/ha, rated after 3 weeks. The protocol:
as §1, §2

Data set [9] deals with Ipomoea purpurea. The description is as above. The settings on record: 20 g ai/ha, rated after 3 weeks. As to the method: as §1, §2
Data set [10] has as its system Leptochloa chinensis. The data set is described as above. Conditions: 20 g ai/ha, rated after 3 weeks. As to the method: as §1, §2
Data set [11] concerns Sesbania exaltata. The data set is described as above. Conditions: 20 g ai/ha, rated after 3 weeks. As to the method: as §1, §2
Data set [12] deals with rice (cultivar: Balilla). Kind of data set: Irrigated directly seeded paddy rice, herbicide damage, spraying to stems and leaves after sprouting (Test Example 3, Table 11). The settings on record: 20 g ai/ha, rated after 3 weeks. As to the method:
as §1, §2

For data set [13], the system named is Brachiaria plantaginea. Kind of data set: Irrigated directly seeded paddy rice, herbicidal effect, spraying to stems and leaves after sprouting (Test Example 3, Table 11). The settings on record: 20 g ai/ha, rated after 3 weeks. As to the method: as §1, §2
In data set [14] the test system is Cyperus esculntus. The description is as above. The settings on record: 20 g ai/ha, rated after 3 weeks. As to the method:
as §1, §2

Data set [15] has as its system Cyperus iria L. The data set is described as above. Conditions: 20 g ai/ha, rated after 3 weeks. As to the method: as §1, §2
Data set [16] has as its system Echinochloa colonum. The data set is described as above. The settings on record: 20 g ai/ha, rated after 3 weeks. As to the method:
as §1, §2

For data set [17], the system named is Ipomoea purpurea. Described as above. The settings on record: 20 g ai/ha, rated after 3 weeks. The protocol:
as §1, §2

Data set [18] concerns Leptochloa chinensis. The data set is described as above. Conditions: 20 g ai/ha, rated after 3 weeks. The protocol: as §1, §2
The test system of data set [19] is Sesbania exaltata. Described as above. The settings on record: 20 g ai/ha, rated after 3 weeks. The protocol: as §1, §2
In data set [20] the test system is Lindernia procumbens Philcox (resistant to sulfonylurea type herbicide). Kind of data set: Herbicidal efficacy test to weeds resistant to sulfonylurea type herbicide (Test Example 1, applied on water surface, Table 8). Conditions: 60 g ai/ha, applied on water surface at beginning of sprouting, rated after 3 weeks; 100% = complete withering, 0% = no effect. The protocol:
as §5, §6, §7, §1, §8

Take `COc1cc(OC)nc(C(O)c2cccc(F)c2NS(=O)(=O)C(F)(F)F)n1` (stereo not shown) [C-1, reference compound]: the “Herbicide damage Glycine max” value with Glycine max is 20%. In addition, the “Herbicide damage Triticum aestivum” value in the data set on Triticum aestivum [1] and in the data set on Triticum aestivum [2] was 0% each time. In addition, the “Herbicidal effect Echinochloa crus-gali” value in the data set with Echinochloa crus-gali stood at 0%. The “Herbicidal effect Setaria vividis” value with Setaria vividis was 0%. Further, the “Herbicidal effect Veronica persica” value in the data set on Veronica persica was 60%. Further, the “Herbicidal effect Viola mandshurica” value with Viola mandshurica stood at 30%.
Regarding `COc1nc(OC)nc(C(=O)c2cccc(F)c2N(C)S(=O)(=O)C(F)F)n1` [Compound No. 1], the “Herbicidal effect to sulfonylurea resistant weeds: Scirpus juncoides Roxburgh (from Hokkaido)” value in [3] came to 100%. Further, the “Herbicide damage on Rice” value in the data set with rice (cultivar: Balilla) [4] and in the data set with rice (cultivar: Balilla) [12] was 20% throughout. Moreover, the “Herbicidal effect Brachiaria plantaginea” value in the data set on Brachiaria plantaginea [5] is 80%; with Brachiaria plantaginea [13], 100%. Besides, the “Herbicidal effect Cyperus esculntus” value in the data set with Cyperus esculntus [6] and in the data set on Cyperus esculntus [14] was 100% each time. Moreover, the “Herbicidal effect Cyperusiria L.” value with Cyperus iria L. [7] and in the data set with Cyperus iria L. [15] was 100% each time. Further, the “Herbicidal effect Echinochloa colonum” value with Echinochloa colonum [8] and in the data set with Echinochloa colonum [16] was 100% each time. The “Herbicidal effect Ipomoea purpurea” value with Ipomoea purpurea [9] and in the data set with Ipomoea purpurea [17] was 90% throughout. Besides, the results for the “Herbicidal effect Leptochloa chinensis” value in the data set with Leptochloa chinensis [10] and in the data set on Leptochloa chinensis [18] were 100% and 80%, respectively. For the same compound, the “Herbicidal effect Sesbania exaltata” value in the data set with Sesbania exaltata [11] and in the data set on Sesbania exaltata [19] was 100% throughout. The “Herbicide damage Glycine max” value with Glycine max turned out to be 20%. Also, in the data set on Triticum aestivum [1], the “Herbicide damage Triticum aestivum” value was determined as 0%. Besides, the “Herbicidal effect Echinochloa crus-gali” value with Echinochloa crus-gali stood at 90%. Further, the “Herbicidal effect Setaria vividis” value in the data set with Setaria vividis turned out to be 80%.
In the case of `COc1nc(OC)nc(C(O)c2cccc(F)c2N(C)S(=O)(=O)C(F)F)n1` (stereo not shown) [compound 9], the “Herbicide damage on Rice” value with rice (cultivar: Balilla) [4] and in the data set on rice (cultivar: Balilla) [12] was 20% each time. For the same compound, the figures for the “Herbicidal effect Brachiaria plantaginea” value in the data set on Brachiaria plantaginea [5] and in the data set on Brachiaria plantaginea [13] were 70% and 100%, respectively. Besides, the “Herbicidal effect Cyperus esculntus” value with Cyperus esculntus [6] and in the data set with Cyperus esculntus [14] was 100% in each case. The “Herbicidal effect Cyperusiria L.” value with Cyperus iria L. [7] and with Cyperus iria L. [15] was 100% in each case. The “Herbicidal effect Echinochloa colonum” value with Echinochloa colonum [8] and with Echinochloa colonum [16] was 100% each time. Further, the “Herbicidal effect Ipomoea purpurea” value with Ipomoea purpurea [9] is recorded as 70%; in the data set with Ipomoea purpurea [17] it was 100%. Moreover, the “Herbicidal effect Leptochloa chinensis” value in the data set with Leptochloa chinensis [10] is given as 80%; in the data set on Leptochloa chinensis [18] it was 60%. In addition, the “Herbicidal effect Sesbania exaltata” value in the data set on Sesbania exaltata [11] and in the data set with Sesbania exaltata [19] was 100% in each case.
For the compound `COc1cc(OC)nc(C(Cl)c2cccc(F)c2NS(=O)(=O)C(F)F)n1` (stereo not shown) [compound 13], the “Herbicidal effect to sulfonylurea resistant weeds: Lindernia procumbens Philcox (from Saitama pref.)” value in data set [20] was determined as 100%. Besides, the “Herbicidal effect to sulfonylurea resistant weeds: Scirpus juncoides Roxburgh (from Hokkaido)” value in data set [3] stood at 100%. In addition, in the data set on Triticum aestivum [2], the “Herbicide damage Triticum aestivum” value is 0%. Moreover, the “Herbicidal effect Veronica persica” value in the data set with Veronica persica was 100%. Besides, the “Herbicidal effect Viola mandshurica” value in the data set with Viola mandshurica was determined as 100%.
